Reference: PMC7658267, “Effects of CYP46A1 Inhibition on Long-Term-Depression in Hippocampal Slices ex vivo and 24S-Hydroxycholesterol Levels in Mice in vivo” (Frontiers in Molecular Neuroscience, 2020)
Like-named read-outs stand apart in the source and are kept apart here.

How the values were obtained:
Human Eta = molecular target: T1, Human Eta (Homo sapiens, UniProt P25101); experiment: biochemical; set-up: CEREP off-target binding panel, per cent inhibition at 10 uM, n = 2
T1 construct: gene EDNRA
T1 sequence (P25101 whole entry): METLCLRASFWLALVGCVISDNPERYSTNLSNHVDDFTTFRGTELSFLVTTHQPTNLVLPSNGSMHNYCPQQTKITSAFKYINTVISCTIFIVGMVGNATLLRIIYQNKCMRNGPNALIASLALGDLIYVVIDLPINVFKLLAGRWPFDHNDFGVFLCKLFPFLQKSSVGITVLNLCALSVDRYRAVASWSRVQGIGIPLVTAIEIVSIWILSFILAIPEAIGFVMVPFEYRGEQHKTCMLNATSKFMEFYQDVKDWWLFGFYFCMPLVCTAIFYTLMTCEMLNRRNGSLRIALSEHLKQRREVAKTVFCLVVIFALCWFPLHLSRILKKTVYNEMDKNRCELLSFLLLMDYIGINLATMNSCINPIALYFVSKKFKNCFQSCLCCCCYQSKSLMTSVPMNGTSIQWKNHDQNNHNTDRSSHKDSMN

CYP46A1 [1] = molecular target: T2, CYP46A1 (Homo sapiens, UniProt Q9Y6A2); experiment: recombinant human CYP46A1 microsomes, cholesterol to 24-hydroxycholesterol, LC-MS/MS ([…] with testosterone as substrate); assay type: biochemical
T2 sequence (Q9Y6A2 whole entry): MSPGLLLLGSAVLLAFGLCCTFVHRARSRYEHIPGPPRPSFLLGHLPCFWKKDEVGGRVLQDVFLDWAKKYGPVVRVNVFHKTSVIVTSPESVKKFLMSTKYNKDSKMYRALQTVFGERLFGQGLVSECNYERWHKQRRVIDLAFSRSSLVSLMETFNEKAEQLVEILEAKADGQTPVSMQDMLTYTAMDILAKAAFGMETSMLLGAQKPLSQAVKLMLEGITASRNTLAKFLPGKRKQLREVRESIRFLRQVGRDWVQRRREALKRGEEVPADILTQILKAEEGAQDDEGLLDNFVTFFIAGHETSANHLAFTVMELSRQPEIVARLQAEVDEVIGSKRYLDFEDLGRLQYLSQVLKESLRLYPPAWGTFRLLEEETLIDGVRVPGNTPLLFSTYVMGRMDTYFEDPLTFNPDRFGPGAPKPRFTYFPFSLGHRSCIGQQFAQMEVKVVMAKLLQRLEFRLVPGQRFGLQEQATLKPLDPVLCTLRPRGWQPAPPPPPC

CYP46A1 [2] = molecular target: T2, CYP46A1; experiment: as above; assay type: biochemical; remark: listed apart in the source
Human β1 = molecular target: T3, Human β1 (Homo sapiens, UniProt P08588); experiment: biochemical; set-up: CEREP off-target binding panel, per cent inhibition at 10 uM, n = 2
T3 construct: gene ADRB1
T3 sequence (P08588 whole entry): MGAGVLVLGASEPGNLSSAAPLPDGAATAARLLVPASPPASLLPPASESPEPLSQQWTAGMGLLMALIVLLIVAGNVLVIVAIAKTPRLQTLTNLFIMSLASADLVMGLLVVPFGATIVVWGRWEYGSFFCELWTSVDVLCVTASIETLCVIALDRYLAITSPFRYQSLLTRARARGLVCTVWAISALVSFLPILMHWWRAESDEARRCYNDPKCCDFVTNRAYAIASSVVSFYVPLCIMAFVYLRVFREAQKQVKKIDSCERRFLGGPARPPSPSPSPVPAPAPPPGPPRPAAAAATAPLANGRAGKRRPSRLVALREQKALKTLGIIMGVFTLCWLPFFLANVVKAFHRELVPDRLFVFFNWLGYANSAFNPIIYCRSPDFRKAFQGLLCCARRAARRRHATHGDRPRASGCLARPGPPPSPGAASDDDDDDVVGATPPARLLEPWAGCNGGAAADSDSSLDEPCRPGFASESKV

Human M2 = molecular target: T4, Human M2 (Homo sapiens, UniProt P08172); experiment: biochemical; set-up: CEREP off-target binding panel, per cent inhibition at 10 uM, n = 2
T4 construct: gene CHRM2
T4 sequence (P08172 whole entry): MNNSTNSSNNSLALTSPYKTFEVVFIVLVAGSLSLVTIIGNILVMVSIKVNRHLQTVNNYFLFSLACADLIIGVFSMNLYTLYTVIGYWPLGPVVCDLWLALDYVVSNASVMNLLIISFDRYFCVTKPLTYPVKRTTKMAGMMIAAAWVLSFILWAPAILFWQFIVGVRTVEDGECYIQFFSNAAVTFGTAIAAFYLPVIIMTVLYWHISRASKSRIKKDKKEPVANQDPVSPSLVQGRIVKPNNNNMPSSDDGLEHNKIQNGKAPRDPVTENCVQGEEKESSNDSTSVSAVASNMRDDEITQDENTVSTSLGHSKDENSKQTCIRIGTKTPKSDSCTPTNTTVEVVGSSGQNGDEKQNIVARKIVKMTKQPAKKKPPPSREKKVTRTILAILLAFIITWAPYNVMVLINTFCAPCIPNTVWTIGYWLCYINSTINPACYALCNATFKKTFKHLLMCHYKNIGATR

Human 5-HT2A = molecular target: T5, Human 5-HT2A (Homo sapiens, UniProt P28223); experiment: biochemical; set-up: CEREP off-target binding panel, per cent inhibition at 10 uM, n = 2
T5 construct: gene HTR2A
T5 sequence (P28223 whole entry): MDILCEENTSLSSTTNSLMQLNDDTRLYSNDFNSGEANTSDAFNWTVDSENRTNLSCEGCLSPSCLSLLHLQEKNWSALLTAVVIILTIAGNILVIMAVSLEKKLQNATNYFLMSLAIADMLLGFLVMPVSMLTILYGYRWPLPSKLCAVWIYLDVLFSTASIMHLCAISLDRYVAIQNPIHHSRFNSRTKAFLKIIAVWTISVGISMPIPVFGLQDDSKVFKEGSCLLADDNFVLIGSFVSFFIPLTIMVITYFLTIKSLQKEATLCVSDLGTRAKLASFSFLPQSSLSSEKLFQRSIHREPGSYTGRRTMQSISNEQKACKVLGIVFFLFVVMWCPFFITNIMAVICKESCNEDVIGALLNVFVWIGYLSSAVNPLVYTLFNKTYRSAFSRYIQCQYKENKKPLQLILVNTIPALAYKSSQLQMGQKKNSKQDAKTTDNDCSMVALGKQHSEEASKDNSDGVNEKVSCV

SMILES	inhibition at 10 µM (Human Eta)	IC50 (CYP46A1 [1])	IC50 (CYP46A1 [2])	inhibition at 10 µM (Human β1)	inhibition at 10 µM (Human M2)	inhibition at 10 µM (Human 5-HT2A)
O=C(c1cnc2c(-c3cnco3)cc(C(F)(F)F)cn12)N1C2CCC1COC2 [compound 1, (3-oxa-8-azabicyclo[3.2.1]octan-8-yl)(8-(oxazol-5-yl)-6-(trifluoromethyl)imidazo[1,2-a]pyridin-3-yl)methanone]	-25.8%	22 nM				
O=C(c1cccnc1-c1ccncn1)N1CCC(O)(Cc2ccc(F)cc2)CC1 [compound 2, (4-(4-fluorobenzyl)-4-hydroxypiperidin-1-yl)(2-(pyrimidin-4-yl)pyridin-3-yl)methanone]	-35.5%		32 nM	-0.7%	12.3%	-5%
